Read-outs that look alike come from different tables or passages of the source.
Assays:
[1] = system: BACE1 inhibition in HEKp293 cells transfected with APP751 gene (SWE293); test: SWE293 cellular assay: reduction of Aβ peptide production, ELISA; assay type: cell-based; conditions: Homo sapiens, read-out: SWE293 ED50
Method: BACE1 inhibition is also assessed in a cellular assay. HEKp293 cells transfected with APP751 gene (SWE293, American Type Culture Collection CRL-1563) are used to assess compounds for reduction in levels of Aβ peptide production. SWE293 cell medium is DMEM supplemented with 10% fetal bovine serum and 2 mM L-glutamine, 1.0 mM sodium pyruvate, 25 mM Hepes Buffer, 0.4 mg/mL geneticin (G418, Gibco BRL 860-181IIJ). Cells are maintained diluting 1:10 for 4 days in T-150 flask and 35 mL of cell media. For plating, cells are rinsed with 5 mL of 1×PBS, trypsinized with 4 mL of 0.05% Tripsin for 1 minute, and 12 mL of cell media is added. These are centrifuged at 1000 rpm for 4 minutes and the media aspirated, then 8 mL of media per flask is added. Based on cell count, appropriate amounts of cell and cell media are combined, and 180 μl per well are plated (96 well) and the plates are incubated overnight at 37° C., 5% CO2. Compounds to be tested are serially diluted 1:3 in DMSO and twice in media (without G418) in V-bottom plates and incubated at room temperature. Plated cells are washed with media, 3×50 μL per well and 17 μL per well of appropriate dilution of compound is added. Plates are incubated for 2 hours, and the wash steps, compound addition and incubation are repeated. Sample is transferred to capture plate (prepared with 266 antibody, see e.g. Johnson-Wood et al., PNAS February 1997, 94: 1550-1555), along with a standard curve of Aβ-40. ELISA assay is used to assess Aβ levels, washing with TBS, 0.05% Tween20 pH 7.5, then adding 1.3 mg/mL 3D6 antibody 1:900 in specimen diluents with thimericol is added (100 μl per well) and incubated for 1 hour. Wash step is repeated and Streptavidin-AP diluted 1:1000 in specimen diluents with thimerisol is added (100 μL per well) and incubated for 1 hour. Wash step is repeated and fluorescent substrate is added, 100 μL per well and incubated for 10 minutes followed by reading the fluorescent signal on a plate reader.

BACE1 [2] = biological target: T1, BACE1 (Homo sapiens (Human), UniProt P56817); test: BACE1 FP assay; assay type: biochemical; conditions: pH 4.5
Method: (§1) BACE1 activity can be assessed in an AlphaScreen® assay. Compounds to be assessed (e.g. compounds as described in the above examples) are serially diluted 1:4 in DMSO, then plated by diluting 10 μL of compound with 40 μl of assay buffer (1×PBS, 0.01% Tween-20, pH 7.0, 0.05% BSA). The diluted compound is transferred (4 μL per well) to a 386 well assay plate and 4 μL of BACE1 enzyme ([…]) is added and incubated for 15 minutes. This assay uses a probe that is a BACE1 binding sight ligand linked to biotin, which can be displaced by test compound dependent on compound binding affinity. This of biotinylated probe (4 μL) is added and incubated for 1 hour, followed with 4 μL of donor and acceptor bead mixture and incubated for 2 hours. The fluorescent signal is read on a plate reader and the value as a function of compound concentration is used to determine the IC50. Compounds are also assessed for BACE1 and Cathepsin D activity using an FP Assay. Compounds to be assessed (e.g. compounds as described in the above examples) are serially diluted 1:3 with DMSO and each concentration point is transferred to a 96 well plate, 6 μL per well, followed by addition of 194 μL of assay buffer (100 mM sodium acetate, pH 4.5 with 0.001% Tween-20). A 10 μL compound sample from this plate is transferred to a well of a 384 well plate and combined with 10 μL per well of BACE1 enzyme (0.3 nM in assay buffer) or Cathepsin D enzyme (1.8 nM in assay buffer) and the plate is incubated at room temperature for 30 minutes.

BACE1 [3] = biological target: T1, BACE1; test: BACE1 AlphaScreen assay (displacement of biotinylated BACE1 binding site probe); conditions: read-out: BACE1 AS IC50
Method: as §1

Cathepsin D = Cathepsin D (Homo sapiens (Human), UniProt P07339); test: Cathepsin D FP assay; assay type: biochemical; conditions: pH 4.5, read-out: CatD FP IC50
Method: as §1

[4] = dose at which Aβ level is reduced by 50%, HEKp293 SWE293 cells

T1 sequence (P56817 46-501): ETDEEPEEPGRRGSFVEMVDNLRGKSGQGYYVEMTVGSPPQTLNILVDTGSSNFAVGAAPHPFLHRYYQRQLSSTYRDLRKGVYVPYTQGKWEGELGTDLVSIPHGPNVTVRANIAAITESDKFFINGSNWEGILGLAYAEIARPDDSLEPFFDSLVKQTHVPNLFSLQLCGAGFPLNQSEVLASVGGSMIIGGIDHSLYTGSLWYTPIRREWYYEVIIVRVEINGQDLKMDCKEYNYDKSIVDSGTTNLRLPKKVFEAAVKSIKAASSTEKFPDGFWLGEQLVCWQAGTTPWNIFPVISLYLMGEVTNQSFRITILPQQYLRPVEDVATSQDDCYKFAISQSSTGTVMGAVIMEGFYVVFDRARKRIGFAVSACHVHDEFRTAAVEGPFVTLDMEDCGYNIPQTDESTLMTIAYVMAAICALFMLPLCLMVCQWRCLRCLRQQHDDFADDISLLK
Chain of Cathepsin D (P07339 65-412, species assumed): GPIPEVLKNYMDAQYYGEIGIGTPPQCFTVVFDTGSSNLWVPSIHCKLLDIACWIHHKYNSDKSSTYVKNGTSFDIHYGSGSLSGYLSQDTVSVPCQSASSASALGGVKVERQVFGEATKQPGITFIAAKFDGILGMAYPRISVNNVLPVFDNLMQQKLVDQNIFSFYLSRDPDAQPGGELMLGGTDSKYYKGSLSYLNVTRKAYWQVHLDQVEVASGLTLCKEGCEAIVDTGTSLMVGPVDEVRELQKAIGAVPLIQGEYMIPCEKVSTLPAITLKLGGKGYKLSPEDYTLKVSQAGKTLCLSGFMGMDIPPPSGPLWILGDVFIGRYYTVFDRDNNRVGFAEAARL

CCCn1cc(-c2ccc(F)c(C3(C)CC4(CCOCC4)OC(N)=N3)c2)cn1 (stereo not shown) [Compound 8-107, 4-(2-fluoro-5-(1-propyl-1H-pyrazol-4-yl)phenyl)-4-methyl-1,9-dioxa-3-azaspiro[5.5]undec-2-en-2-amine]
IC50 [1, 4]: 1720 nM
IC50 (BACE1 [2]): 34100 nM
IC50 (BACE1 [3]): 1680 nM
IC50 (Cathepsin D): 20800 nM

CC#Cc1cncc(-c2cc([C@]3(C)CC4(CCOCC4)OC(N)=N3)sc2C)c1 [Compound 8-108, (S)-4-methyl-4-(5-methyl-4-(5-(prop-1-ynyl)pyridin-3-yl)thiophen-2-yl)-1,9-dioxa-3-azaspiro[5.5]undec-2-en-2-amine]
IC50 [1, 4]: 485 nM
IC50 (BACE1 [2]): 1120 nM
IC50 (BACE1 [3]): 17.5 nM
IC50 (Cathepsin D): 9320 nM

CC#Cc1cncc(-c2csc(C3(C)CC4(CCC(F)(F)CC4)OC(N)=N3)c2)c1 (stereo not shown) [Compound 8-109, 9,9-difluoro-4-methyl-4-(4-(5-(prop-1-ynyl)pyridin-3-yl)thiophen-2-yl)-1-oxa-3-azaspiro[5.5]undec-2-en-2-amine]
IC50 [1, 4]: 621 nM
IC50 (BACE1 [2]): 1160 nM
IC50 (BACE1 [3]): 68 nM
IC50 (Cathepsin D): 6290 nM

CC#Cc1cncc(-c2csc([C@]3(C)CC4(CCC(F)(F)CC4)OC(N)=N3)c2)c1 [Compound 8-110, (S)-9,9-difluoro-4-methyl-4-(4-(5-(prop-1-ynyl)pyridin-3-yl)thiophen-2-yl)-1-oxa-3-azaspiro[5.5]undec-2-en-2-amine]
IC50 [1, 4]: 305 nM
IC50 (BACE1 [2]): 960 nM
IC50 (BACE1 [3]): 26 nM
IC50 (Cathepsin D): 5570 nM

CC#Cc1cncc(-c2ccc(F)c([C@]3(C)CC4(CCC4)OC(N)=N3)c2)c1 [Compound 8-111, (S)-8-(2-fluoro-5-(5-(prop-1-ynyl)pyridin-3-yl)phenyl)-8-methyl-5-oxa-7-azaspiro[3.5]non-6-en-6-amine]
IC50 [1, 4]: 391 nM
IC50 (BACE1 [2]): 3510 nM
IC50 (BACE1 [3]): 88 nM
IC50 (Cathepsin D): 5080 nM

CC#Cc1cncc(-c2csc(C3(C)CC4(CCOCC4)SC(N)=N3)c2)c1 (stereo not shown) [Compound 8-113, 4-methyl-4-(4-(5-(prop-1-ynyl)pyridin-3-yl)thiophen-2-yl)-9-oxa-1-thia-3-azaspiro[5.5]undec-2-en-2-amine]
IC50 [1, 4]: 184 nM
IC50 (BACE1 [2]): 160 nM
IC50 (BACE1 [3]): < 7 nM
IC50 (Cathepsin D): 1880 nM

CC#Cc1cncc(-c2csc(C3(C)N=C(N)OC4(CCOCC4)C3(F)F)c2)c1 (stereo not shown) [Compound 8-114, 5,5-difluoro-4-methyl-4-(4-(5-(prop-1-ynyl)pyridin-3-yl)thiophen-2-yl)-1,9-dioxa-3-azaspiro[5.5]undec-2-en-2-amine]
IC50 [1, 4]: 2120 nM
IC50 (BACE1 [2]): 626 nM
IC50 (BACE1 [3]): 220 nM
IC50 (Cathepsin D): 5540 nM

CC1(c2cc(NC(=O)c3ccc(F)cn3)ccc2F)CC2(CCOCC2)OC(N)=N1 (stereo not shown) [Compound 9-120, N-(3-(2-amino-4-methyl-1,9-dioxa-3-azaspiro[5.5]undec-2-en-4-yl)-4-fluorophenyl)-5-fluoropicolinamide]
IC50 [1, 4]: 13 nM
IC50 (BACE1 [2]): 282 nM
IC50 (BACE1 [3]): 19 nM
IC50 (Cathepsin D): > 30000 nM

CC1(c2cc(NC(=O)c3ccc(Cl)cn3)ccc2F)CC2(CCOCC2)OC(N)=N1 (stereo not shown) [Compound 9-121, N-(3-(2-amino-4-methyl-1,9-dioxa-3-azaspiro[5.5]undec-2-en-4-yl)-4-fluorophenyl)-5-chloropicolinamide]
IC50 [1]: 6 nM
IC50 (BACE1 [2]): 73 nM
IC50 (BACE1 [3]): 9 nM
IC50 (Cathepsin D): > 30000 nM

C[C@@]1(c2cc(NC(=O)c3ccc(Cl)cn3)ccc2F)CC2(CCOCC2)OC(N)=N1 [Compound 9-122, (S)—N-(3-(2-amino-4-methyl-1,9-dioxa-3-azaspiro[5.5]undec-2-en-4-yl)-4-fluorophenyl)-5-chloropicolinamide]
IC50 [1]: 4 nM
IC50 (BACE1 [2]): 59 nM
IC50 (BACE1 [3]): 12 nM
IC50 (Cathepsin D): > 30000 nM

C[C@@]1(c2cc(NC(=O)c3ccc(F)cn3)ccc2F)CC2(CCC(F)(F)CC2)OC(N)=N1 [Compound 9-123, (S)—N-(3-(2-amino-9,9-difluoro-4-methyl-1-oxa-3-azaspiro[5.5]undec-2-en-4-yl)-4-fluorophenyl)-5-fluoropicolinamide]
IC50 [1, 4]: 19 nM
IC50 (BACE1 [2]): 270 nM
IC50 (BACE1 [3]): 8.7 nM
IC50 (Cathepsin D): > 30000 nM

C[C@@]1(c2cc(NC(=O)c3ccc(Cl)cn3)ccc2F)CC2(CCC(F)(F)CC2)OC(N)=N1 [Compound 9-124, (S)—N-(3-(2-amino-9,9-difluoro-4-methyl-1-oxa-3-azaspiro[5.5]undec-2-en-4-yl)-4-fluorophenyl)-5-chloropicolinamide]
IC50 [1, 4]: 11 nM
IC50 (BACE1 [2]): 60 nM
IC50 (BACE1 [3]): 4.5 nM
IC50 (Cathepsin D): > 30000 nM

CC1(c2cc(NC(=O)c3ccc(F)cn3)ccc2F)CC2(CCC2)OC(N)=N1 (stereo not shown) [Compound 9-125, N-(3-(6-amino-8-methyl-5-oxa-7-azaspiro[3.5]non-6-en-8-yl)-4-fluorophenyl)-5-fluoropicolinamide]
IC50 [1, 4]: 67 nM
IC50 (BACE1 [2]): 366 nM
IC50 (BACE1 [3]): 29 nM
IC50 (Cathepsin D): > 30000 nM

C[C@@]1(c2cc(NC(=O)c3ccc(F)cn3)ccc2F)CC2(CCC2)OC(N)=N1 [Compound 9-126, (S)—N-(3-(6-amino-8-methyl-5-oxa-7-azaspiro[3.5]non-6-en-8-yl)-4-fluorophenyl)-5-fluoropicolinamide]
IC50 [1, 4]: 80 nM
IC50 (BACE1 [2]): 321 nM
IC50 (BACE1 [3]): 11 nM
IC50 (Cathepsin D): > 30000 nM

C[C@]1(c2cc(NC(=O)c3ccc(F)cn3)ccc2F)CC2(CCC2)OC(N)=N1 [Compound 9-127, (R)—N-(3-(6-amino-8-methyl-5-oxa-7-azaspiro[3.5]non-6-en-8-yl)-4-fluorophenyl)-5-fluoropicolinamide]
IC50 [1, 4]: > 10000 nM
IC50 (BACE1 [2]): 7440 nM
IC50 (BACE1 [3]): 1310 nM
IC50 (Cathepsin D): > 30000 nM

C[C@@]1(c2cc(NC(=O)c3ccc(F)cn3)ccc2F)CC2(CCOCC2)OC(N)=N1 [Compound 9-128, (S)—N-(3-(2-amino-4-methyl-1,9-dioxa-3-azaspiro[5.5]undec-2-en-4-yl)-4-fluorophenyl)-5-fluoropicolinamide]
IC50 [1, 4]: 9 nM
IC50 (BACE1 [2]): 112 nM
IC50 (BACE1 [3]): 4 nM
IC50 (Cathepsin D): > 30000 nM

C[C@@]1(c2cc(NC(=O)c3ccc(Cl)cn3)ccc2F)CC2(CCC2)OC(N)=N1 [Compound 9-129, (S)—N-(3-(6-amino-8-methyl-5-oxa-7-azaspiro[3.5]non-6-en-8-yl)-4-fluorophenyl)-5-chloropicolinamide]
IC50 [1, 4]: 37 nM
IC50 (BACE1 [2]): 107 nM
IC50 (BACE1 [3]): 8.3 nM
IC50 (Cathepsin D): > 30000 nM

C[C@@]1(c2cc(NC(=O)c3ccc(C#N)cn3)ccc2F)CC2(CCC2)OC(N)=N1 [Compound 9-130, (S)—N-(3-(6-amino-8-methyl-5-oxa-7-azaspiro[3.5]non-6-en-8-yl)-4-fluorophenyl)-5-cyanopicolinamide]
IC50 [1, 4]: 5.4 nM
IC50 (BACE1 [2]): 46 nM
IC50 (BACE1 [3]): 6 nM
IC50 (Cathepsin D): > 30000 nM

C[C@@]1(c2cc(NC(=O)c3ncc(Cl)cc3F)ccc2F)CC2(CCC2)OC(N)=N1 [Compound 9-131, (S)—N-(3-(6-amino-8-methyl-5-oxa-7-azaspiro[3.5]non-6-en-8-yl)-4-fluorophenyl)-5-chloro-3-fluoropicolinamide]
IC50 [1, 4]: 46 nM
IC50 (BACE1 [2]): 87 nM
IC50 (BACE1 [3]): 5.7 nM
IC50 (Cathepsin D): > 30000 nM

From patent publication US9493485B2, “Spirocyclic dihydro-thiazine and dihydro-oxazine BACE inhibitors, and compositions and uses thereof” (Imago Pharmaceuticals, Inc., priority 2012, dated 2016)
